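1) Cells in 96-well plates. 2) Compound, 48 h, 5 concentrations. 3) Linear interpolation between surrounding doses. 4) Unreached endpoint = highest concentration. GI50 marks 50% less growth.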 Calls of active or inactive are those of the source. Cut-off read from the data, not from the text of the source: active = GI50 up to about 1.1 µM and inactive = higher.
Assays:
Test in all cases: growth of human tumour cells (NCI), 48 h
HCC 2998 = test system: HCC 2998
SF-268 = test system: SF-268
NCI-H226 = test system: NCI-H226
SK-MEL-2 = test system: SK-MEL-2
A549 = test system: A549
UACC-257 = test system: UACC-257
SK-MEL-28 = test system: SK-MEL-28
T47D = test system: T47D
NCI-H23 = test system: NCI-H23
CAKI-1 = test system: CAKI-1
SK-MEL-5 = test system: SK-MEL-5
786-0 = test system: 786-0
MDA-MB-435 = test system: MDA-MB-435
U-251 = test system: U-251
IGROV-1 = test system: IGROV-1
M14 = test system: M14
LOX IMVI = test system: LOX IMVI
HCT-116 = test system: HCT-116
SNB-19 = test system: SNB-19
SK-OV-3 = test system: SK-OV-3

Measured: GI50

Cc1cc(Oc2cnc(=O)[nH]c2)cs1
inactive: HCC 2998 > 100 µM | SF-268 > 100 µM | NCI-H226 > 100 µM | SK-MEL-2 > 100 µM | A549 > 100 µM | UACC-257 > 100 µM | SK-MEL-28 > 100 µM | T47D > 100 µM | NCI-H23 > 100 µM | CAKI-1 > 100 µM | SK-MEL-5 > 100 µM | 786-0 > 100 µM | MDA-MB-435 > 100 µM | U-251 > 100 µM | IGROV-1 > 100 µM | M14 > 100 µM | LOX IMVI > 100 µM | HCT-116 > 100 µM | SNB-19 > 100 µM | SK-OV-3 > 100 µM

O=C(Nc1sccc1S(=O)(=O)c1ccccc1)c1cccnc1
inactive: HCC 2998 21.3 µM | SF-268 57.4 µM | NCI-H226 13.7 µM | SK-MEL-2 6.71 µM | A549 11.5 µM | UACC-257 37.5 µM | SK-MEL-28 38.5 µM | T47D 70.6 µM | NCI-H23 27 µM | CAKI-1 > 32.7 µM | SK-MEL-5 3.61 µM | 786-0 12 µM | MDA-MB-435 1.83 µM | U-251 2.97 µM | IGROV-1 9.02 µM | M14 6.08 µM | LOX IMVI 75.3 µM | HCT-116 6.59 µM | SNB-19 > 44.5 µM | SK-OV-3 11.7 µM

CCCC/C=C1\CCC(CN2CCCCC2)C1=O (stereo not given)
inactive: HCC 2998 8.67 µM | SF-268 32.1 µM | NCI-H226 26.5 µM | SK-MEL-2 > 39 µM | A549 33.3 µM | UACC-257 24.9 µM | SK-MEL-28 21.3 µM | T47D > 100 µM | NCI-H23 28.1 µM | CAKI-1 9.48 µM | SK-MEL-5 26.6 µM | 786-0 6.31 µM | MDA-MB-435 > 100 µM | U-251 29.2 µM | IGROV-1 19.1 µM | M14 10.1 µM | LOX IMVI > 28.9 µM | HCT-116 17.8 µM | SNB-19 31.7 µM | SK-OV-3 > 42.1 µM

Oc1ccc(-c2nc(-c3ccc4ccccc4n3)c(-c3ccc(F)cc3)[nH]2)cc1
inactive: HCC 2998 3.94 µM | SF-268 13 µM | NCI-H226 14.2 µM | SK-MEL-2 14.5 µM | A549 11.6 µM | UACC-257 13.5 µM | SK-MEL-28 17.4 µM | T47D 7.11 µM | NCI-H23 12.5 µM | CAKI-1 13.6 µM | SK-MEL-5 2.12 µM | 786-0 15.2 µM | MDA-MB-435 12.2 µM | U-251 10.6 µM | IGROV-1 13 µM | M14 11 µM | LOX IMVI 10.6 µM | HCT-116 12.9 µM | SNB-19 17.3 µM | SK-OV-3 15.3 µM

COc1ccc2c(C)c(Oc3c(Cl)c(Cl)c(O)c(C#N)c3C#N)oc2c1
inactive: HCC 2998 > 100 µM | SF-268 > 100 µM | NCI-H226 > 100 µM | SK-MEL-2 > 100 µM | A549 > 100 µM | UACC-257 > 100 µM | SK-MEL-28 > 100 µM | T47D > 100 µM | NCI-H23 > 100 µM | CAKI-1 > 100 µM | SK-MEL-5 > 100 µM | 786-0 > 100 µM | MDA-MB-435 > 100 µM | U-251 > 100 µM | IGROV-1 > 100 µM | M14 > 100 µM | LOX IMVI > 100 µM | HCT-116 > 100 µM | SNB-19 > 100 µM | SK-OV-3 > 100 µM

Cc1cn(CC2=NCCN2)c(=O)[nH]c1=O
inactive: HCC 2998 > 100 µM | SF-268 > 100 µM | NCI-H226 > 100 µM | SK-MEL-2 > 100 µM | A549 > 100 µM | UACC-257 > 100 µM | SK-MEL-28 > 100 µM | T47D > 100 µM | NCI-H23 > 100 µM | CAKI-1 > 100 µM | SK-MEL-5 > 100 µM | 786-0 > 100 µM | MDA-MB-435 > 100 µM | U-251 > 100 µM | IGROV-1 > 100 µM | M14 > 100 µM | LOX IMVI > 100 µM | HCT-116 > 100 µM | SNB-19 > 100 µM | SK-OV-3 > 100 µM

Cc1cn(C2CC(O)C(Cn3nncc3Cn3ccc(=O)[nH]c3=O)O2)c(=O)[nH]c1=O (stereo not given)
inactive: HCC 2998 > 100 µM | SF-268 > 100 µM | NCI-H226 > 100 µM | SK-MEL-2 > 100 µM | A549 > 100 µM | UACC-257 > 100 µM | SK-MEL-28 > 100 µM | T47D > 100 µM | NCI-H23 > 100 µM | CAKI-1 > 100 µM | SK-MEL-5 > 100 µM | 786-0 > 100 µM | MDA-MB-435 > 100 µM | U-251 > 100 µM | IGROV-1 > 100 µM | M14 > 100 µM | LOX IMVI > 100 µM | HCT-116 > 100 µM | SNB-19 > 100 µM | SK-OV-3 > 100 µM

CCN(CC)c1ncnc2c1ncn2CCNC(CO)(CO)CO
inactive: HCC 2998 > 100 µM | SF-268 > 100 µM | NCI-H226 > 100 µM | SK-MEL-2 > 100 µM | A549 > 100 µM | UACC-257 > 100 µM | SK-MEL-28 > 100 µM | T47D > 100 µM | NCI-H23 > 100 µM | CAKI-1 > 100 µM | SK-MEL-5 > 100 µM | 786-0 > 100 µM | MDA-MB-435 > 100 µM | U-251 > 100 µM | IGROV-1 > 100 µM | M14 > 100 µM | LOX IMVI > 100 µM | HCT-116 > 100 µM | SNB-19 > 100 µM | SK-OV-3 > 100 µM

CN1C(=O)c2ccccc2OC12C=Cc1ccc(O)cc1O2 (stereo not given)
inactive: HCC 2998 18.9 µM | SF-268 26.9 µM | NCI-H226 23.2 µM | SK-MEL-2 20.6 µM | A549 30.8 µM | UACC-257 15.6 µM | SK-MEL-28 21.3 µM | T47D 13.8 µM | NCI-H23 28.2 µM | CAKI-1 16.1 µM | SK-MEL-5 17.3 µM | 786-0 31.6 µM | MDA-MB-435 16.4 µM | U-251 24.8 µM | IGROV-1 28.2 µM | M14 12.7 µM | LOX IMVI 9.62 µM | HCT-116 25.8 µM | SNB-19 20.4 µM | SK-OV-3 19.5 µM

O/N=N/c1ccccn1.OCC1OC2OC3C(CO)OC(OC4C(CO)OC(OC5C(CO)OC(OC6C(CO)OC(OC7C(CO)OC(OC1C(O)C2O)C(O)C7O)C(O)C6O)C(O)C5O)C(O)C4O)C(O)C3O (stereo not given)
inactive: HCC 2998 > 100 µM | SF-268 > 100 µM | NCI-H226 > 100 µM | SK-MEL-2 56.9 µM | A549 > 100 µM | UACC-257 71.1 µM | SK-MEL-28 62.5 µM | T47D > 100 µM | NCI-H23 > 100 µM | CAKI-1 > 100 µM | SK-MEL-5 30.5 µM | 786-0 > 100 µM | MDA-MB-435 19.2 µM | U-251 > 100 µM | IGROV-1 > 100 µM | M14 30.8 µM | LOX IMVI 57.3 µM | HCT-116 41.6 µM | SNB-19 63.7 µM | SK-OV-3 > 100 µM

Reference: ChEMBL document CHEMBL1201862, “PubChem BioAssay data set” (2004)
